In patent US6835846B2, “Aliphatic compounds, process for their preparation and their usage” (Maruha Corporation, priority 2000, dated 2004):

What was measured:
[1] = tested on: endothelial cell-neutrophil interaction; assay: Anti-inflammatory tests using pseudo-blood vessel model (neutrophil transmigration and adhesion); assay type: cell-based, bovine; conditions: for neutrophil transmigration and adhesion: 0.1 and 1 microM compound, 10 microM AHOP in lower compartment, FIG. 4
Protocol: Transwells were used, each consisting of an upper compartment separated from a lower compartment by a porous membrane. A single layer of bovine endothelial cells was cultured on the porous membrane at the bottom surface of the transwell upper compartment. A suspension of fluorescence-labeled neutrophils was added to the transwell upper compartment, and AHOP was suspended within the lower compartment to an end concentration of 0.1 to 10 microM. That is, a pseudo-blood vessel in vitro inflammation model was thus constructed in which the upper compartment and the lower compartment of the transwell were isolated from each other via the endothelial layer, and the upper compartment corresponded to the interior of a blood vessel, while the lower compartment corresponded to the site of inflammation outside the blood vessel. Measurements were made of the number of the neutrophils passing from the upper compartment into the lower compartment through the endothelial layer, and the number of the neutrophils adhering to the endothelial layer. […] That is, AHOP was considered to act as an inflammation-inducing substance.
That is, the compound of Example 2 or 3 was added in an amount of 0.01 to 1 microM to the upper compartment or lower compartment of the transwell, and 10 microM AHOP was placed in the lower compartment to induce inflammation. As a control, inflammation was induced in the same way as above but without addition of any compounds of the invention.
Measurements were made of the number of the neutrophils passing from the upper compartment into the lower compartment through the endothelial layer, and the number of the neutrophils adhering to the endothelial layer. A relative neutrophil count (%) was calculated from the following equation:
Relative neutrophil count (%)=[number of neutrophils (passing and adhering) in the experimental group]/[number of neutrophils (passing and adhering) in the control]×100

[2] = tested on: cancer cell strain F10; conditions: F10 cells; AHOP concentration of 10^−8 to 10^−6 M; maximum; cited from earlier work
[3] = tested on: Edg receptor; assay: Edg receptor response test (intracellular Ca^2+ increase by AHOP in HL60 cells); assay type: cell-based; conditions: for concentration at which the Ca^2+ concentration increase by AHOP was dose-dependently suppressed / increase in the intracellular Ca^2+ concentration by the addition of AHOP: HL60 cells; for concentration at which the Ca^2+ concentration increase by AHOP was dose-dependently suppressed: AHOP 1 μM, FIG. 1; for increase in the intracellular Ca^2+ concentration by the addition of AHOP: test substance 30 μM, then AHOP 1 μM
Description: HL 60 cells were obtained from a cell bank, and subcultured for about 50 passages over a half-year period in accordance with the method described in BBRC '98, 263, p. 253 using an RPMI-1640 culture medium (Gibco) containing 10% fetal bovine serum to prepare a premyeloblastoma cell strain HL60 expressing Edg receptors on the cell surface. Using the premyeloblastoma cell strain HL60 expressing Edg receptors on the cell surface, the cell response of test substances was investigated. An increase in the intracellular Ca^2+ concentration was measured as an indicator of cell response. It is reported that when the Edg receptor on the HL60 cell surface is bound to AHOP, it phosphorylates G protein to activate IP3 kinase, whereafter the intracellular Ca^2+ concentration increases (FEBS Letter '96, 379, p. 260, BBRC '98, 253, p. 253). Thus, the intracellular Ca^2+ concentration serves as an indicator of Edg receptor response.
A Ca^2+ chelating reagent, Fura-2AM, was taken into HL60 cells.
A cell suspension (1.2 ml) was charged into a quartz cell, which was then mounted on a fluorometer LS50B (Perkin Elmer, for cell measurement). An excitation wavelength was alternately switched between 340 nm (exciting Fura-2 having chelated Ca^2+) and 380 nm (exciting unreacted Fura-2) at intervals of 0.5 milli second, and fluorescence intensity at 510 nm was measured.
Each test substance was added at an end concentration of 30 μM by means of a microsyringe, and then fluorescence intensity was traced to investigate whether Ca^2+ would increase or not. It was also confirmed whether Ca^2+ would increase or not when AHOP (1 μM) was added after addition of the test substance. Through these tests, the AHOP antagonism of each substance was studied.
Suramin, already confirmed to have antagonistic action, was used as a comparison. The experimental procedure was the same as described above, except that AHOP (1 μM) was added after addition of the test substance at varying concentration. An increase in the Ca^2+ concentration was evaluated by an increased Ca^2+ concentration (%) as a value relative to the increased Ca^2+ concentration in a negative control group (no drug added).

[4] = tested on: Edg receptors; assay: Competition experiments using ^3H-AHOP on HL60 cells; assay type: binding; conditions: for competition with ^3H-AHOP: HL60 cells, ^3H-AHOP 1 nM, unlabeled compound 10 nM, 30 nM or 100 nM, 30 minutes at 4° C.; for inhibition of binding of ^3H-AHOP (to HL60 cells): compound 1 nM, 3 nM and 10 nM, FIG. 2
Protocol: The same premyeloblastoma cell strain HL60 expressing Edg receptors on the cell surface as used in Example 4 was used. The cells were harvested by centrifugation, then suspended in an F-12 culture medium (stored at 4° C., 10 ml), and carried into an RI laboratory. ^3H-AHOP (15 μCi/1 nM) at an end concentration of 1 nM, and an unlabeled compound (the compound of Example 2 or Example 3) at an end concentration of 10 nM, 30 nM or 100 nM were each added to 200 μl of the cell suspension (1×10^6 cells/ml F-12), and a binding test was conducted for 30 minutes at 4° C. (with occasional stirring). After centrifugation for 7 minutes at 12,000 rpm, the supernatant was rapidly (without damaging cell pellets) discarded with a micropipetter. The cell pellets were suspended in 1.5 ml of Ready Safe (Beckman), whereafter the suspension was transferred into a vial and measured for radioactivity by a liquid scintillation counter L2100 (Beckman).
The compounds of Example 2 and Example 3 were subjected to the same competition experiments as described above, except that they were added at concentrations of 1 nM, 3 nM and 10 nM.

[5] = tested on: vascular smooth muscle cells; assay: Action on vascular smooth muscle growth (BrdU assay); assay type: cell-based; conditions: rat vascular smooth muscle cells, sphingosylphosphorylcholine 10 μM, 24 hours, FIG. 3
Protocol: Thus, the actions of the compounds of Examples 2 and 3 on the growth of vascular smooth muscle cells were measured in the manner described below. Suramin confirmed to have Edg receptor antagonism was used as a positive control.
The rat carotid intima was rubbed by ballooning, and a tissue fragment was cultured by explant culture. Two weeks later, vascular smooth muscle cells harvested were cultured in a DMEM culture medium (Gibco) containing 10% fetal bovine serum. The cultures were subcultured several times for stabilization, whereafter the subcultures were seeded at a cell density of 5×10^3 cells/cm^2 for use in experiments.
Along with the growth factor sphingosylphosphorylcholine (10 μM), the compound of Example 2 or 3, or suramin was added to the cells, and 24 hours later, the cell density was measured by BrdU assay (Science '82, 218, p. 474, Cytometry '85, 6, p. 584).

[6] = tested on: myocardial infarction due to reperfusion following ligation of the rabbit coronary artery; assay: Ligation-associated myocardial infarction model; assay type: in vivo
Protocol: The compound of Example 2 was used as a test substance for investigating its effect on myocardial infarction due to reperfusion following ligation of the rabbit coronary artery. Male NZW rabbits (weighing 2.83 to 3.20 kg) were purchased from Kitayama Labes, Co. Ltd., and bred and raised under the conditions: room temperature 20-26° C., humidity 40-70%, and illumination time 12 hours/day (7-19:00). The animals were allowed food and water ad libitum, and quarantined and acclimatized for 2 weeks or more. Then, the animals in good health were used. The above rabbits were administered 10 mg/kg of the compound of Example 2 through the jugular vein under anesthesia, and then the compound of Example 2 was continuously infused in a dose of 6.9 micro g/kg/min. In a control group, physiological saline (hereinafter referred to as PS) was administered in the same manner as in the experimental group. Then, coronary artery was ligated for 30 minutes, whereafter the ligature was released for reperfusion, and the blood pressure in the carotid artery, the pulse rate and the number of arrhythmias were measured. The carotid arterial blood pressure and pulse rate were measured before administration, during continuous intravenous infusion, during the ligation period (15 minute later and 30 minutes later), and during reperfusion. The carotid arterial blood pressure was calculated as mean blood pressure. The number of arrhythmias was counted as the number of extrasystoles that appeared during the ligation period (for 30 minutes) or during reperfusion. After 3 hours of reperfusion, the heart was removed, and sliced into 6 pieces. The living tissues were stained with 2,3,5-triphenyltetrazolium […] (TTC), the area of the infarct due to ligation was measured, and the percent of the infarct with respect to the area of the left ventricle was calculated.

[7] = rabbit acute myocardial infarction models
[8] = rabbit, 10 mg/kg jugular vein then 6.9 micro g/kg/min infusion
[9] = rabbit, 10 mg/kg then 6.9 micro g/kg/min, ligation 15 min
[10] = rabbit, 10 mg/kg then 6.9 micro g/kg/min, ligation 30 min
[11] = rabbit, 10 mg/kg then 6.9 micro g/kg/min, reperfusion 180 min
[12] = rabbit, baseline before administration

Q: Which “transmigration through the endothelial layer and adhesion of the neutrophils (inflammation-inducing action)” value ([1]; AHOP 10 microM in lower compartment) does the source give for CCCCCCCCCCCCCC=CC(O)C(N)COP(=O)(O)O (stereo not drawn) [AHOP, 2-amino-3-hydroxy-4-octadecene-1-phosphate, reference compound] here?
A: promoted significantly

Q: What about the suppression of migration [2] of the same compound?
A: ~80%

Q: Which melting point does the source give for CCCCCCCCCCCCCC[C@H](O)C(=O)N[C@H](CO)[C@@H](O)/C=C/CC/C=C(\C)CCCCCCCCC [Example 1, (4E,8E,2R,3S,2′S)-N-2′-hydroxyhexadecanoyl-9-methyl-4,8-octadecadiene-1,3-diol] here?
A: 62 to 63 °C

Q: What does the source list for CCCCCCCCCCCCCC[C@H](O)C(=O)N[C@H](CO)[C@@H](O)/C=C/CC/C=C(\C)CCCCCCCCC [Example 2, (4E,8E,2R,3S,2′S)-N-2′-hydroxyhexadecanoyl-9-methyl-4.8-octadecadiene-1,3-diol]?
A: strength of the action in comparison with suramin (ED50) ([3]; ED50 for intracellular Ca^2+ increase): about 40 times; concentration at which the Ca^2+ concentration increase by AHOP was dose-dependently suppressed [3]: 0.03 to 0.3 µM; increase in the intracellular Ca^2+ concentration by the addition of AHOP [3]: inhibited; competition with ^3H-AHOP [4]: competitive with ^3H-AHOP; inhibition of binding of ^3H-AHOP (to HL60 cells) [4]: Dose-dependent inhibition; concentrations at which vascular smooth muscle growth was inhibited [5]: 0.3 to 3 µM; neutrophil transmigration and adhesion [1]: suppressed; ligation-associated decrease in pulse rate (in words) [6, 7]: tended to inhibit; number of arrhythmias due to ligation (in words) [6, 7]: reduce the number of arrhythmias due to ligation; percent area of the infarct (in words) [6, 7]: tendency toward decreasing; Mean blood pressure, continued i.v. infusion [6, 8]: 74 ± 9 mmHg; Pulse rate, continued i.v. infusion [6, 8]: 283 ± 10 beats/min; Mean blood pressure, ligation 15 min [6, 9]: 59 ± 10 mmHg; Pulse rate, ligation 15 min [6, 9]: 270 ± 9 beats/min; Mean blood pressure, ligation 30 min [6, 10]: 66 ± 8 mmHg; Pulse rate, ligation 30 min [6, 10]: 282 ± 4 beats/min; Mean blood pressure, reperfusion 180 min [6, 11]: 68 ± 4 mmHg; Pulse rate, reperfusion 180 min [6, 11]: 256 ± 10 beats/min; Infarct/left ventricle (percent area of the infarct) ([6]; rabbit, after 3 hours of reperfusion, TTC staining): 14.0 ± 2.1%; Mean blood pressure, before administration [6, 12]: 83 ± 4 mmHg; Pulse rate, before administration [6, 12]: 301 ± 9 beats/min; number of arrhythmias, reperfusion ([6]; rabbit, extrasystoles during reperfusion): 17 ± 6; number of arrhythmias, ligation ([6]; rabbit, extrasystoles during the ligation period (30 minutes)): 12 ± 5

Q: With CCCCCCCCCCCCCCC(O)C(=O)N[C@@H](CO)[C@H](O)/C=C/CCCC(C)CCCCCCCCC (stereo partly drawn) [Example 3, (4E,2S,3R,2′RS)-N-2′-hydroxyhexadecanoyl-9-methyl-4-octadecene-1,3-diol] as the compound, how does the “concentration at which the Ca^2+ concentration increase by AHOP was dose-dependently suppressed” value [3] read?
A: 0.3 to 3 µM

Q: What about the “increase in the intracellular Ca^2+ concentration by the addition of AHOP” value [3] of the same compound?
A: inhibited

Q: And the “competition with ^3H-AHOP” value [4]?
A: competitive with ^3H-AHOP

Q: What about the “inhibition of binding of ^3H-AHOP (to HL60 cells)” value [4] of the same compound?
A: Dose-dependent inhibition

Q: What about the “concentrations at which vascular smooth muscle growth was inhibited” value [5] of the same compound?
A: 1 to 10 µM

Q: And the “neutrophil transmigration and adhesion” value [1]?
A: suppressed

Q: And the melting point?
A: 52 to 57 °C
